{
  "source": "patent US20140295402A1",
  "about": "“METHODS AND MATERIALS FOR PROLONGING USEFUL STORAGE OF RED BLOOD CELL PREPARATIONS AND PLATELET PREPARATIONS” (priority 2011, published 2014)",
  "key": {"[1]": {"test_system": "red blood cell preparation", "experiment": "Storage of red blood cell preparations in blood bags with CO2: pCO2, lactate, glucose and pH levels", "assay_type": "cell-based", "settings": "for Glucose / Lactate: red blood cell preparation", "procedure": "Red blood cells were collected and processed using standard techniques and stored in standard blood bags. Prior to collecting the red blood cells, an empty blood bag containing anti-coagulated citrate phosphate dextrose with adenine (AS1) was flushed with CO2 for one minute. The collection bag was then filled with blood from a donor. Next, 50 cubic centimeters of CO2 were added to the bag via the sterile docking port. The bag was gently inverted for 30 seconds and then placed upright. Using an empty syringe, the 50 cubic centimeters of air/CO2 was removed from the bag through the sterile docking port. The controls were red blood cell preparations placed in blood bags not flushed with CO2 and not exposed to 50 cubic centimeters of CO2.\nThe control and CO2 treated red blood cell preparations were tested for pCO2 (or pO2) levels, lactate levels, glucose levels, and pH levels at days 0, 14, and 21 (Table 1). […] This fall in pH is reversible, and pH levels can return to normal values of […] when normal pCO2 levels (e.g., 40-60 mmHg) are re-established."}, "platelets": {"test_system": "platelets", "experiment": "ATP secretion of platelets induced with 1 μM thrombin (Zylux luminometer)", "assay_type": "cell-based, human", "settings": "after 24 hours storage at room temperature", "procedure": "ATP secretion was performed using a Zylux luminometer where the secretion was induced using 1 μM thrombin. […] However, the CO2 treated platelets had approximately 80% of baseline secretion after 24 hours storage."}, "Pseudomonas aeruginosa": {"test_system": "Pseudomonas aeruginosa", "experiment": "Bacterial growth in spiked PRP, quantitative culture after 30 hours", "assay_type": "cell-based", "settings": "PRP spiked with 10 CFU, approximately 30 hours at room temperature", "procedure": "(§1) Clinical isolates of Bacillus cereus and Pseudomonas aeruginosa were spiked into control and CO2 treated platelets at a concentration of 10 CFU (i.e., 10 bacteria total, not 10 CFU/mL). The platelets were stored for approximately 30 hours at room temperature on a platelet agitator. After 30 hours, quantitative culture was performed on serial dilutions of the platelet sample on 5% sheep blood agar plates."}, "Bacillus cereus [2]": {"test_system": "Bacillus cereus", "experiment": "Bacterial growth in spiked PRP, quantitative culture after 30 hours", "assay_type": "cell-based", "settings": "PRP spiked with 10 CFU, approximately 30 hours at room temperature", "procedure": "as §1"}, "[3]": {"test_system": "platelets in platelet-rich plasma (PRP)", "experiment": "Platelet aggregation of PRP by optical aggregometry after equilibration with 99% CO2", "assay_type": "cell-based, human", "procedure": "Fresh human whole blood was drawn into 3.2% sodium citrate, and platelet-rich plasma (PRP) was prepared. Control citrated PRP was stored at room temperature in a polypropylene tube. CO2 was exposed to the air/fluid interface of PRP using a 99.9% CO2 tank. CO2 was administered for approximately 60 seconds during which time the pH dropped from an average value of 7.4 to 6.4.\nUsing a Chronolog 700 platelet aggregometer, platelet aggregation was performed pre- and post-CO2 to ADP, AA, and Epi. Platelet aggregometry was carried out as described elsewhere (Born and Cross, J. Physiol., 168:178-195 (1963)). The assay was performed at 37° C. with a sample stir speed of 1200 r.p.m. Each sample consisted of 450 μL platelet rich plasma.\nIn another study, the impact of CO2 on platelet function was explored by equilibrating platelet-rich plasma (PRP) with 99% CO2. The PRP was prepared by low-speed centrifugation of blood anticoagulated with 3.2% sodium citrate and kept in capped polypropylene tubes. Platelet function was measured by optical aggregometry with ADP and epinephrine as triggers. Equilibration with CO2 under a positive flow of gas was monitored by the fall in pH from 7.2 to 6.4, which typically occurs within 60 seconds. Degassing of CO2 by a flow of room air over the PRP was verified by the return to pH 7.2. Immediately after removal of the PRP from the CO2 atmosphere, aggregation to ADP and epinephrine was suppressed (FIG. 18, first set). When the samples had returned to pH 7.2, aggregation to both triggers was restored (FIG. 18, center set)."}, "E. coli": {"test_system": "E. coli", "experiment": "Bacterial growth in inoculated apheresis platelet unit, quantitative culture", "assay_type": "cell-based", "settings": "platelets exposed to 99% CO2 for 10 minutes", "procedure": "(§2) Outdated apheresis platelet unit (day 6) was obtained from the Mayo Clinic components laboratory. About half of the platelet unit was perfused with 99% CO2 gas for 10 minutes with mixing. Control samples without CO2 exposure and CO2-treated samples of 10 mL volume were inoculated with clinical isolates of eight different organisms. Control and CO2 samples were spiked with identical bacterial loads. Quantitative culture using 5% sheep blood agar plates was conducted immediately following inoculation (0 hours) and at 24 and 48 hour time points. Time 0 hour inoculation load was selected to compensate for observed “spike and die” in outdated apheresis platelet units. The time 0 hour value represented the value of the initial spike."}, "S. epidermidis": {"test_system": "S. epidermidis", "experiment": "Bacterial growth in inoculated apheresis platelet unit, quantitative culture", "assay_type": "cell-based", "settings": "platelets exposed to 99% CO2 for 10 minutes", "procedure": "as §2"}, "Enterobacter cloacae": {"test_system": "Enterobacter cloacae", "experiment": "Bacterial growth in inoculated apheresis platelet unit, quantitative culture", "assay_type": "cell-based", "settings": "platelets exposed to 99% CO2 for 10 minutes", "procedure": "as §2"}, "Klebsiella oxytoca": {"test_system": "Klebsiella oxytoca", "experiment": "Bacterial growth in inoculated apheresis platelet unit, quantitative culture", "assay_type": "cell-based", "settings": "platelets exposed to 99% CO2 for 10 minutes", "procedure": "as §2"}, "S. aureus": {"test_system": "S. aureus", "experiment": "Bacterial growth in inoculated apheresis platelet unit, quantitative culture", "assay_type": "cell-based", "settings": "platelets exposed to 99% CO2 for 10 minutes", "procedure": "as §2"}, "Corynebacterium": {"test_system": "Corynebacterium", "experiment": "Bacterial growth in inoculated apheresis platelet unit, quantitative culture", "assay_type": "cell-based", "settings": "platelets exposed to 99% CO2 for 10 minutes", "procedure": "as §2"}, "Bacillus cereus [4]": {"test_system": "Bacillus cereus", "experiment": "Bacterial growth in inoculated apheresis platelet unit, quantitative culture", "assay_type": "cell-based", "settings": "platelets exposed to 99% CO2 for 10 minutes", "procedure": "as §2"}, "S. pyogenes": {"test_system": "S. pyogenes", "experiment": "Bacterial growth in inoculated apheresis platelet unit, quantitative culture", "assay_type": "cell-based", "settings": "platelets exposed to 99% CO2 for 10 minutes", "procedure": "as §2"}, "[5]": {"settings": "storage with CO2, compared to controls"}},
  "data": [
    {"compound": "O=C=O", "note": "[CO2]", "values": [
      {"measurement": "Glucose", "setting": "[1]; day 0 of storage", "result": 571, "unit": "mg/dL"},
      {"measurement": "Lactate", "setting": "[1]; day 0 of storage", "result": 1.2, "unit": "µmol/mL"},
      {"measurement": "Glucose", "setting": "[1]; day 14 of storage", "result": 503, "unit": "mg/dL"},
      {"measurement": "Lactate", "setting": "[1]; day 14 of storage", "result": 5, "unit": "µmol/mL"},
      {"measurement": "Glucose", "setting": "[1]; day 21 of storage", "result": 478, "unit": "mg/dL"},
      {"measurement": "Lactate", "setting": "[1]; day 21 of storage", "result": 5.3, "unit": "µmol/mL"},
      {"measurement": "glucose consumption", "setting": "[1]; [5]", "result": "inhibition"},
      {"measurement": "lactate formation", "setting": "[1]; [5]", "result": "inhibition"},
      {"measurement": "ATP secretion, of baseline", "setting": "platelets", "result": "approximately 80%"},
      {"measurement": "bacterial growth", "setting": "Pseudomonas aeruginosa", "result": "no growth"},
      {"measurement": "bacterial growth", "setting": "Bacillus cereus [2]", "result": "no growth"},
      {"measurement": "aggregation", "setting": "[3]; after 24 hours under CO2", "result": "equivalent to that of controls"},
      {"measurement": "aggregation to ADP and epinephrine", "setting": "[3]; after samples had returned to pH 7.2", "result": "restored"},
      {"measurement": "aggregation to ADP and epinephrine", "setting": "[3]; immediately after removal of the PRP from the CO2 atmosphere", "result": "suppressed"},
      {"measurement": "bacterial growth", "setting": "E. coli; 24 hours", "result": "1.80E+02", "unit": "CFU/mL"},
      {"measurement": "bacterial growth", "setting": "E. coli; 48 hours", "result": "5.20E+03", "unit": "CFU/mL"},
      {"measurement": "bacterial growth", "setting": "S. epidermidis; 0 hours (initial spike)", "result": "6.10E+02", "unit": "CFU/mL"},
      {"measurement": "bacterial growth", "setting": "S. epidermidis; 24 hours", "result": "3.30E+02", "unit": "CFU/mL"},
      {"measurement": "bacterial growth", "setting": "S. epidermidis; 48 hours", "result": "4.20E+02", "unit": "CFU/mL"},
      {"measurement": "bacterial growth", "setting": "Enterobacter cloacae; 0 hours (initial spike)", "result": "1.22E+03", "unit": "CFU/mL"},
      {"measurement": "bacterial growth", "setting": "Enterobacter cloacae; 24 hours", "result": "1.20E+06", "unit": "CFU/mL"},
      {"measurement": "bacterial growth", "setting": "Enterobacter cloacae; 48 hours", "result": "8.60E+07", "unit": "CFU/mL"},
      {"measurement": "bacterial growth", "setting": "Klebsiella oxytoca; 0 hours (initial spike)", "result": "8.10E+02", "unit": "CFU/mL"},
      {"measurement": "bacterial growth", "setting": "Klebsiella oxytoca; 24 hours", "result": "1.15E+04", "unit": "CFU/mL"},
      {"measurement": "bacterial growth", "setting": "Klebsiella oxytoca; 48 hours", "result": "4.30E+05", "unit": "CFU/mL"},
      {"measurement": "bacterial growth", "setting": "S. aureus; 0 hours (initial spike)", "result": "1.17E+03", "unit": "CFU/mL"},
      {"measurement": "bacterial growth", "setting": "S. aureus; 24 hours", "result": "3.20E+03", "unit": "CFU/mL"},
      {"measurement": "bacterial growth", "setting": "S. aureus; 48 hours", "result": "2.70E+04", "unit": "CFU/mL"},
      {"measurement": "bacterial growth", "setting": "Corynebacterium; 0 hours (initial spike)", "result": "7.90E+02", "unit": "CFU/mL"},
      {"measurement": "bacterial growth", "setting": "Corynebacterium; 24 hours", "result": "2.70E+02", "unit": "CFU/mL"},
      {"measurement": "bacterial growth", "setting": "Corynebacterium; 48 hours", "result": "4.20E+02", "unit": "CFU/mL"},
      {"measurement": "bacterial growth", "setting": "Bacillus cereus [4]; 0 hours (initial spike)", "result": "1.00E+01", "unit": "CFU/mL"},
      {"measurement": "bacterial growth", "setting": "Bacillus cereus [4]; 24 hours", "result": "no"},
      {"measurement": "bacterial growth", "setting": "Bacillus cereus [4]; 48 hours", "result": "no"},
      {"measurement": "bacterial growth", "setting": "S. pyogenes; 0 hours (initial spike)", "result": "1.55E+03", "unit": "CFU/mL"},
      {"measurement": "bacterial growth", "setting": "S. pyogenes; 24 hours", "result": "1.20E+05", "unit": "CFU/mL"},
      {"measurement": "bacterial growth", "setting": "S. pyogenes; 48 hours", "result": "8.00E+07", "unit": "CFU/mL"}
    ]}
  ]
}
